What all share (assay type): in vivo
One test concerns Plutella xylostella. The test is described as follows: Efficacy test against Plutella xylostella (cabbage leaf dip). The conditions noted are these: foliar, 72 h, cabbage leaves soaked, second-instar larvae, 3 days after inoculation, read-out: insect mortality rate. As for the experimental part: (§1) 5 parts of the compound of the present invention, 93.6 parts of dimethylformamide and 1.4 parts of polyoxyethylene alkyl aryl ether were mixed and dissolved to prepare Emulsion (I) including 5% of an active ingredient.
(§2) An insect mortality rate and a controlling rate were calculated by the numerical equations shown below. Insect mortality rate(%)={(Number of dead insects)/(Number of sample insects)}×100 Controlling rate={1−(Nt)/(Nc)}×100 • wherein • Nt: number of parasites in spray-treated area; and • Nc: number of parasites in non-treated area
Emulsion (I) was diluted with water so that the concentration of the compound of the present invention was 125 ppm. Cabbage leaves were soaked in the diluted liquid for 30 seconds. Subsequently, the cabbage leaves were put on Petri dishes, followed by inoculating 5 second-instar larvae of Plutella xylostella. The Petri dishes were placed in a thermostatic chamber at a temperature of 25° C. and humidity of 60%. Mortality was investigated 3 days after inoculation, and the insect mortality rate was calculated. The test was performed twice.

The test system of a further test is Aphis gossypii. In words: Efficacy test against Aphis gossypii (cucumber seedling spray). The note with it: 96 h, sprayed on cucumber seedlings, nymphs, 4 days after spraying, read-out: insect mortality rate. The protocol: as §1, §2
Emulsion (I) was diluted with water so that the concentration of the compound of the present invention was 125 ppm. Cucumbers were raised in No. 3 pots and the first leaves were inoculated with nymphs of Aphis gossypii. The diluted emulsion mentioned above was sprayed onto the cucumber seedlings. The aforementioned cucumber seedlings were then placed in a thermostatic chamber with a temperature of 25° C. and humidity of 60%. Mortality was investigated 4 days after spraying was carried out, and the insect mortality rate of Aphis gossypii was calculated. The test was performed twice.

Another test has as its system Aphis craccivora. In words: Efficacy test against Aphis craccivora (black-eyed pea spray). The note with it: in Vigna unguiculata, 96 h, sprayed on black-eyed pea plants, nymphs, 4 days after spraying, read-out: insect mortality rate. The protocol: as §1, §2
Black-eyed pea plants were raised in No. 3 pots and the primary leaves were inoculated with nymphs of Aphis craccivora. Emulsion (I) was diluted with water so that the concentration of the compound of the present invention was 125 ppm. Subsequently, the aforementioned diluted liquid was sprayed on the black-eyed pea plants on which the nymphs of Aphis craccivora were parasitic. The aforementioned black-eyed pea plants were then placed in a thermostatic chamber with a temperature of 25° C. and humidity of 60%. Mortality was investigated 4 days after spraying was carried out, and the insect mortality rate of Aphis craccivora was calculated. The test was performed twice.

For test [1], the system named is adult Phyllotreta striolata. In words: Efficacy test against Phyllotreta striolata (bok-choi seedling spray). The conditions noted are these: 168 h, sprayed on bok-choi seedlings, adults, 7 days after inoculation, read-out: insect mortality rate. The protocol: as §1, §2
Emulsion (I) was diluted with water so that the concentration of the compound of the present invention was 125 ppm, to prepare a diluted liquid for testing. The aforementioned diluted liquid was sprayed on bok-choi seedlings (7th major leaf-development period) planted in No. 3 pots. After the bok-choi seedlings were subjected to air-drying, the seedlings were placed in plastic cups, followed by inoculating 10 adult Phyllotreta striolata. […] Mortality was investigated 7 days after inoculation, and the insect mortality rate was calculated. […]
Emulsion (I) was diluted with water so that the concentration of the compound of the present invention was 8 ppm, to prepare a diluted liquid for testing. […] Mortality was investigated 7 days after inoculation, and the insect mortality rate was calculated. […]

Test [2] has as its system first-instar larvae of Culex pipiens molestus. In words: Efficacy test against Culex pipiens molestus (larvae in chemical liquid). The conditions noted are these: 24 h, first-instar larvae in 100 mL chemical liquid, after one day, read-out: insect mortality rate. The protocol:
as §1, §2
Emulsion (I) was diluted with water so that the concentration of the compound of the present invention was 10 ppm, to prepare a chemical liquid for testing. 20 first-instar larvae of Culex pipiens molestus were released in 100 mL of the chemical liquid. After one day, the number of dead insects was counted, and the insect mortality rate was calculated. The test was performed twice.

The next test concerns Nilaparvata lugens. In words: Efficacy test against Nilaparvata lugens (rice seedling dip). The note with it: 168 h, rice seedlings soaked, second-instar larvae, 7 days after inoculation, read-out: insect mortality rate. As for the experimental part: as §1, §2
Emulsion (I) was diluted with water so that the concentration of the compound of the present invention was 125 ppm. Rice seedlings were soaked in the diluted liquid for 30 seconds, and subjected to air-drying. Subsequently, the rice seedlings were placed in plastic cases, followed by inoculating 5 second-instar larvae of Nilaparvata lugens. The plastic cases were placed in a thermostatic chamber at a temperature of 25° C. and humidity of 65%. Mortality was investigated 7 days after inoculation, and the insect mortality rate was calculated. The test was performed twice.

The term mortality denotes the percentage killed. Regarding `CCS(=O)(=O)c1ccc(-n2cncn2)nc1-n1ncc(-c2ccc(OC(F)(F)F)cc2)c1C` [1-1, 3-(ethylsulfonyl)-2-(5-methyl-4-(4-(trifluoromethoxy)phenyl)-1H-pyrazol-1-yl)-6-(1H-1,2,4-triazol-1-yl)pyridine], the mortality at 125 ppm (in the test with Plutella xylostella; in the test on Aphis gossypii; with Aphis craccivora; in test [1] (125 ppm); in the test with Nilaparvata lugens) was not below 80% throughout. Also, in test [1] (8 ppm), the mortality at 8 ppm is not below 80%. Besides, the mortality at 10 ppm in test [2] was found to be 100%.

For the origin of these results see US11078181B2, “Diaryl pyrazole compound and formulation for controlling harmful organisms” (Nippon Soda Co., Ltd., priority 2016, dated 2021).
